Laboratory results taken from ChEMBL document CHEMBL1201862, “PubChem BioAssay data set” (2004).
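Test compounds were applied to cells in 96-well plates for 48 hours at 5 doses. GI50 = concentration required for 50% inhibition of growth.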 Calls of active or inactive are those of the source. Rule as the data show it: active = GI50 up to about 1.1 µM and inactive = higher.

Legend:
Assay in all cases: NCI tumour cell line growth inhibition, 48 h
MDA-MB-231 = test system: MDA-MB-231
OVCAR-4 = test system: OVCAR-4
NCI/ADR-RES = test system: NCI/ADR-RES
SNB-19 = test system: SNB-19
SF-539 = test system: SF-539
SF-268 = test system: SF-268
CAKI-1 = test system: CAKI-1
SK-MEL-5 = test system: SK-MEL-5
MDA-MB-435 = test system: MDA-MB-435
SW-620 = test system: SW-620
SN12C = test system: SN12C
HCT-15 = test system: HCT-15
M14 = test system: M14
CCRF-CEM = test system: CCRF-CEM
HOP-62 = test system: HOP-62
PC-3 = test system: PC-3
OVCAR-3 = test system: OVCAR-3
RXF 393 = test system: RXF 393
A498 = test system: A498
SR = test system: SR

SMILES	GI50 (MDA-MB-231)	GI50 (OVCAR-4)	GI50 (NCI/ADR-RES)	GI50 (SNB-19)	GI50 (SF-539)	GI50 (SF-268)	GI50 (CAKI-1)	GI50 (SK-MEL-5)	GI50 (MDA-MB-435)	GI50 (SW-620)	GI50 (SN12C)	GI50 (HCT-15) [µM]	GI50 (M14)	GI50 (CCRF-CEM)	GI50 (HOP-62)	GI50 (PC-3)	GI50 (OVCAR-3)	GI50 (RXF 393)	GI50 (A498)	GI50 (SR)
COc1ccc2c(c1)-c1[nH]c3ccccc3c1CC2	16.8 µM (inactive)	17.1 µM (inactive)	11.9 µM (inactive)	15.7 µM (inactive)	17.4 µM (inactive)	14.9 µM (inactive)	15.4 µM (inactive)	13.2 µM (inactive)	16.6 µM (inactive)	16.8 µM (inactive)	14.4 µM (inactive)	14.7	17.4 µM (inactive)	18 µM (inactive)	16.8 µM (inactive)	14.9 µM (inactive)	18.2 µM (inactive)	–	–	–
N=C(N)NCC[C@H](NC(=O)OCCCCCn1ccc(=O)[nH]c1=O)C(=O)O	> 100 µM (inactive)	> 100 µM (inactive)	> 100 µM (inactive)	> 100 µM (inactive)	> 100 µM (inactive)	> 100 µM (inactive)	> 100 µM (inactive)	> 100 µM (inactive)	> 100 µM (inactive)	> 100 µM (inactive)	> 100 µM (inactive)	> 100	–	> 100 µM (inactive)	> 100 µM (inactive)	> 100 µM (inactive)	> 100 µM (inactive)	> 100 µM (inactive)	–	–
C#CCCCCC#Cc1ccccc1C(=O)C=[N+]=[N-]	> 100 µM (inactive)	> 100 µM (inactive)	–	> 100 µM (inactive)	> 100 µM (inactive)	> 100 µM (inactive)	> 100 µM (inactive)	> 100 µM (inactive)	> 100 µM (inactive)	> 100 µM (inactive)	> 100 µM (inactive)	> 100	> 100 µM (inactive)	–	> 100 µM (inactive)	> 100 µM (inactive)	–	> 100 µM (inactive)	> 100 µM (inactive)	–
CC12CC(c3ccccc3O1)C(C(=O)Nc1ccc(F)cc1)C(=O)N2 (stereo not drawn)	–	51.9 µM (inactive)	47.4 µM (inactive)	> 100 µM (inactive)	> 100 µM (inactive)	> 100 µM (inactive)	> 100 µM (inactive)	32.5 µM (inactive)	> 100 µM (inactive)	> 100 µM (inactive)	–	> 100	> 100 µM (inactive)	28.2 µM (inactive)	> 100 µM (inactive)	> 100 µM (inactive)	> 100 µM (inactive)	–	> 100 µM (inactive)	73.1 µM (inactive)
CCOc1cc2c(cc1O)/C(=N/NS(=O)(=O)c1ccc(C)cc1)C[C@@H]1[C@@H]2CC[C@]2(C)[C@@H](O)CC[C@@H]12	8.51 µM (inactive)	4.78 µM (inactive)	3.5 µM (inactive)	8.79 µM (inactive)	3.45 µM (inactive)	7.13 µM (inactive)	12.6 µM (inactive)	2.47 µM (inactive)	–	3.52 µM (inactive)	–	4.53	3.21 µM (inactive)	3.79 µM (inactive)	–	7.53 µM (inactive)	–	4.85 µM (inactive)	9.31 µM (inactive)	1.04 µM (active)
Cc1ccc(C(=O)/C=C/c2cccc([N+](=O)[O-])c2)cc1	–	46.9 µM (inactive)	–	60.1 µM (inactive)	> 58.6 µM (inactive)	> 67.5 µM (inactive)	> 92 µM (inactive)	> 100 µM (inactive)	–	21.6 µM (inactive)	> 56.4 µM (inactive)	21.6	98.6 µM (inactive)	29.1 µM (inactive)	> 100 µM (inactive)	–	54.1 µM (inactive)	> 43.7 µM (inactive)	98.2 µM (inactive)	18.6 µM (inactive)
CCOC(=O)/C(=C\NC(N)=S)C(=O)c1ccccc1	> 100 µM (inactive)	> 100 µM (inactive)	> 100 µM (inactive)	> 100 µM (inactive)	> 100 µM (inactive)	> 100 µM (inactive)	> 100 µM (inactive)	> 100 µM (inactive)	> 100 µM (inactive)	> 100 µM (inactive)	> 100 µM (inactive)	> 100	> 100 µM (inactive)	–	> 100 µM (inactive)	–	> 100 µM (inactive)	> 100 µM (inactive)	> 100 µM (inactive)	–
O=C(OC1CCC2OOC1O2)c1ccc([N+](=O)[O-])cc1 (stereo not drawn)	–	> 100 µM (inactive)	–	> 100 µM (inactive)	> 100 µM (inactive)	> 100 µM (inactive)	> 100 µM (inactive)	> 100 µM (inactive)	–	> 100 µM (inactive)	> 100 µM (inactive)	> 100	> 100 µM (inactive)	> 100 µM (inactive)	> 100 µM (inactive)	–	> 100 µM (inactive)	> 100 µM (inactive)	> 100 µM (inactive)	> 100 µM (inactive)
CC(C(=O)NCNC(=O)c1ccccc1)C(=O)Nc1ccccc1 (stereo not drawn)	> 100 µM (inactive)	–	> 100 µM (inactive)	> 100 µM (inactive)	> 100 µM (inactive)	> 100 µM (inactive)	> 100 µM (inactive)	> 100 µM (inactive)	> 100 µM (inactive)	> 100 µM (inactive)	> 100 µM (inactive)	> 100	> 100 µM (inactive)	> 100 µM (inactive)	–	> 100 µM (inactive)	–	> 100 µM (inactive)	–	–
Cc1ccc(/C=C2\CCCCCC2=O)cc1	> 100 µM (inactive)	> 100 µM (inactive)	–	> 100 µM (inactive)	–	> 100 µM (inactive)	> 100 µM (inactive)	> 100 µM (inactive)	> 100 µM (inactive)	> 100 µM (inactive)	> 100 µM (inactive)	> 100	> 100 µM (inactive)	41.3 µM (inactive)	> 100 µM (inactive)	> 100 µM (inactive)	> 100 µM (inactive)	–	> 100 µM (inactive)	> 100 µM (inactive)
O=c1c(C(c2ccco2)c2c(O)oc3ccccc3c2=O)c(O)oc2ccccc12	20 µM (inactive)	70.8 µM (inactive)	30.5 µM (inactive)	44.6 µM (inactive)	–	31.9 µM (inactive)	21.8 µM (inactive)	40.3 µM (inactive)	31.6 µM (inactive)	21.4 µM (inactive)	25.1 µM (inactive)	19.1	–	26.8 µM (inactive)	> 100 µM (inactive)	> 100 µM (inactive)	41.6 µM (inactive)	–	> 100 µM (inactive)	–
CNC(=O)ON(C(C)=O)C(=O)NC [CARACEMIDE]	–	63.8 µM (inactive)	67.1 µM (inactive)	157 µM (inactive)	64.4 µM (inactive)	75 µM (inactive)	55.2 µM (inactive)	40.3 µM (inactive)	15.3 µM (inactive)	52 µM (inactive)	58.9 µM (inactive)	31	9.55 µM (inactive)	–	140 µM (inactive)	26.5 µM (inactive)	54.1 µM (inactive)	34.3 µM (inactive)	87.7 µM (inactive)	28.1 µM (inactive)
